According to US11117907B2, “Curcuminoid-inspired synthetic compounds as anti-tumor agents” (University of North Florida Board of Trustees, priority 2017, dated 2021):
Read-outs that look alike come from different tables or passages of the source.

How the values were obtained:
RPMI8226 [1] = assay: Cell viability assay to determine EC50 (CellTiter-Glo 2.0), RPMI8226; type: cell-based; settings: Homo sapiens, RPMI-8226; Table 7, run number 2; 72 h
Method: (§1) RPMI-8266 (Multiple myeloma cell line, MM) and PBCMs cells were seeded into 384-well culture plates at 2×10^3 cell/well in quadruplicate, and incubated at 5% CO2, 37° C. The culture media was replaced with compounds (ranges from 0-10,000 nM) and incubated for 72 h. Bortezomib was spiked in control. […] CellTiter-Glo® 2.0 reagent was added at equal volume to the cell culture medium present in each well and the plate was left to incubate at room temperature for 10 minutes to stabilize the luminescent signal.
(§2) Cell lines and PBCMs (peripheral blood mononuclear cells from healthy donors as non-cancer CONTROL) were seeded in quadruplicate (technical replicates). CellTiter-Glo® 2.0 reagent equal to the volume of cell culture medium present in each well was added and the plate was left to incubate at room temperature for 10 min to stabilize the luminescent signal. Luminescent signal/intensity from the 384-well plate was read on a plate reader. Cells/cell lines used: BCWM.1 (Waldenstrom macroglobulinemia cell line, WM); RPMI-8266 (Multiple myeloma cell line, MM); RS4; 11 (Acute lymphoblastic leukemia, ALL)* reported to be dependent on Bcl-2 protein.

PBMC [2] = assay: Cell viability assay (CellTiter-Glo 2.0), PBMC from healthy donors; type: cell-based; settings: Homo sapiens, Table 7, run number 2, 72 h
Method: Peripheral blood mononuclear cells (PBMCs) were collected from healthy, i.e. non-cancerous, donors (CONTROL).
as §1
as §2, with “Cells/cell lines used: BCWM.1 (Waldenstrom macroglobulinemia cell line, WM); RPMI-8266 (Multiple myeloma cell line, MM); RS4; 11 (Acute lymphoblastic leukemia, ALL)* reported to be dependent on Bcl-2 protein.” left out
Cell lines and PBCMs (peripheral blood mononuclear cells from healthy donors as non-cancer CONTROL) were seeded in quadruplicate (technical replicates). […] Luminescent signal/intensity from the 384-well plate was read on a plate reader. […]

RPMI8226 [3] = settings: control; typically; read-out: EC50 in RPMI8266, typical value; cited from earlier work
PBMC [4] = settings: comparison value; read-out: IC50 of PBMCs; cited from earlier work
[5] = tested on: MM cell lines (MM1.S, KMS11, RPMI-8226); settings: cited from earlier work

Compound: CC(C)C[C@H](NC(=O)[C@H](Cc1ccccc1)NC(=O)c1cnccn1)B(O)O [Bortezomib]
- EC50 (RPMI8226 [1]): 10.6 nM
- EC50 (PBMC [2]): 60.5 nM
- EC50 (RPMI8226 [3]): 10 to 16 nM
- IC50 (PBMC [4]): 4 to 6 nM
- in vitro tumor-specificity profile ([5]; MM cells versus PBMCs): 2-3 fold
- IC50 ([5]; comparison value, read-out: IC50 in MM cells): ~2 nM
